Measured values taken from patent publication US11518754B2, “Radiolabeled pharmaceuticals and methods of making and using same” (YALE UNIVERSITY, priority 2017, dated 2022).

Key:
[1] = target: SV2A (Macaca mulatta, UniProt H9EQH8); experiment: PET imaging studies in rhesus monkeys; settings: for Binding potential (BPND): from VT, centrum semiovale as reference region; for Displacement of radiotracer binding by levetiracetam: levetiracetam 30 mg/kg i.v. infused 60 or 90 min post injection of the radiotracer; for Uptake of radiotracer in blocking studies: levetiracetam (30 mg/kg) or UCB-J (150 μg/kg) i.v. 10 min before radiotracer injection
Protocol: (§1) Experiments were performed in rhesus monkeys (Macaca mulatta). Rhesus monkeys were sedated using intramuscular (i.m.) injection of ketamine and glycopyrrolate approximately 2 hours before the PET scan and anesthesia was maintained with isoflurane (1.5%-2.5%) for the duration of the experiments. Baseline PET scans were obtained after intravenous (i.v.) injection of ^11C-3, ^18F-3, ^18F-4, ^18F-5, ^18F-10, ^18F-11, or ^18F-12.
(§2) Arterial blood samples were collected during the PET scans to calculate the plasma input function and to determine the unmetabolized parent fraction using the automatic column-switching HPLC system. Plasma free fraction (fp) was measured in triplicate using the ultrafiltration method.
(§3) PET scans of the brain were acquired using the FOCUS 220 PET scanner (Siemens Preclinical Solutions) with a reconstructed image resolution of approximately 1.5 mm. After a transmission scan, the radioligand was injected i.v. as a 3 min slow bolus by an infusion pump (PHD 22/2000; Harvard Apparatus). List-mode data were acquired for 120-180 min and binned into sinograms with an applicable number of frames. Scan data were reconstructed with a Fourier rebinning/filtered backprojection algorithm with corrections for attenuation, scanner normalization, radiation scatter, and randoms. Regions of interest were manually delineated on a single representative anatomic rhesus monkey MR image registered to a template image. The regions used in this study were amygdala, brain stem, caudate, centrum semiovale, cerebellum, cingulate cortex, frontal cortex, globus pallidus, insular cortex, nucleus accumbens, occipital cortex, pons, putamen, temporal cortex, and thalamus. Registration parameters were obtained to apply the regions of interest to individual PET scans, and regional time-activity curves were generated. Regional time-activity curves of the brain were analyzed with the 1-tissue-(1T) compartment model. Fit quality was compared with the 2-tissue model and the multilinear analysis method to calculate VT.
(§4) Typical injected radioactivity amount was 0.5-5 mCi per injection, with typical injected mass amount of 1-10 μg.
(§5) Specific binding to SV2A was further examined for ^11C-3, ^18F-3, and ^18F-11 in blocking studies, where levetiracetam or UCB-J ((R)-3) was i.v. infused before injection of the radiotracers.

[2] = Plasma free fraction (fp) by ultrafiltration method; format: in vitro ADME, rhesus monkeys (Macaca mulatta); settings: plasma (from arterial blood samples), rhesus monkey plasma
[3] = PET imaging studies in rhesus monkeys; settings: rhesus monkey, in vivo, Distribution volume (VT), 1T model
Protocol: as §1, §2, §3, §4, §5

[4] = rhesus monkey brain after i.v. injection

SV2A, sequence (H9EQH8 1-742): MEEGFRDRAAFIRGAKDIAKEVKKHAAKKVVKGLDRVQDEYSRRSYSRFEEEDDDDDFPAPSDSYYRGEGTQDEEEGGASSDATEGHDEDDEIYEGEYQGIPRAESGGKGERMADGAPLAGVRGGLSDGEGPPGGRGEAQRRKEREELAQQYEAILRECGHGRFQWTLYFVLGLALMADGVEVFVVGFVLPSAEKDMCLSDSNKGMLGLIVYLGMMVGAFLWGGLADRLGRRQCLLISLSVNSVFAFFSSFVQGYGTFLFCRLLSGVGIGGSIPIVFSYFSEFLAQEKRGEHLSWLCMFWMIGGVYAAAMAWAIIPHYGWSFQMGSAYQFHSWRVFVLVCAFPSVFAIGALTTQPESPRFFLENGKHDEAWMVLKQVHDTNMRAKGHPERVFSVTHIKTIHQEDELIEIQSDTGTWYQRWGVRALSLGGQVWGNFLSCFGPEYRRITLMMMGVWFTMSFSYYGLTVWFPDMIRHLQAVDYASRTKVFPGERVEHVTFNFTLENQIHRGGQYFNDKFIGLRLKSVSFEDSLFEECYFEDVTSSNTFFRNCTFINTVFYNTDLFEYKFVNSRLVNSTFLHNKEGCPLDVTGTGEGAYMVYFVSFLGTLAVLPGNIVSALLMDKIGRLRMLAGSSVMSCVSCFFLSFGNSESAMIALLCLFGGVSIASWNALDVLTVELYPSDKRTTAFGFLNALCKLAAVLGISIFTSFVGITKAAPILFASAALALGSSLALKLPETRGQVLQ

| SMILES | time to SUV peak in gray matter regions ([1]; rhesus monkey, in vivo, iv) | Binding potential (BPND) ([1]; Amygdala) | Binding potential (BPND) ([1]; Brainstem) | Binding potential (BPND) ([1]; Caudate nucleus) | Binding potential (BPND) ([1]; Cerebellum) | Binding potential (BPND) ([1]; Cingulate cortex) | Binding potential (BPND) ([1]; Frontal cortex) | Binding potential (BPND) ([1]; Globus pallidus) | Binding potential (BPND) ([1]; Hippocampus) | Binding potential (BPND) ([1]; Insular cortex) | Binding potential (BPND) ([1]; Nucleus accumbens) | Binding potential (BPND) ([1]; Occipital cortex) | Binding potential (BPND) ([1]; Pons) | Binding potential (BPND) ([1]; Putamen) | Binding potential (BPND) ([1]; Temporal cortex) | Binding potential (BPND) ([1]; Thalamus) | Displacement of radiotracer binding by levetiracetam [1] | fraction unbound [2] | Kp ([3]; Amygdala) | Kp ([3]; Brainstem) | further results |
| --- | --- | --- | --- | --- | --- | --- | --- | --- | --- | --- | --- | --- | --- | --- | --- | --- | --- | --- | --- | --- | --- |
| Cc1cnccc1CN1CC(c2cc(F)c(F)c(F)c2)CC1=O (stereo not shown) [^18F-3, 1-((3-methylpyridin-4-yl)methyl)-4-(3,4,5-trifluorophenyl) pyrrolidin-2-one] | slower | 1.65 ± 1.04 | 0.84 ± 0.28 | 2.54 ± 0.60 | 1.88 ± 0.42 | 4.04 ± 0.38 | 3.90 ± 0.54 | 1.08 ± 0.59 | 1.99 ± 0.75 | 3.51 ± 0.56 | 3.85 ± 0.57 | 3.35 ± 0.27 | 0.80 ± 0.26 | 2.62 ± 0.46 | 3.14 ± 0.41 | 2.53 ± 1.18 | reduced the binding of these tracers to a significant extent | 0.42 ± 0.06 |  |  | Uptake of radiotracer in blocking studies [1]: reduced to background levels |
| Cc1cnccc1CN1CC(c2cc(F)cc(F)c2)CC1=O (stereo not shown) [^18F-5, 4-(3,5-Difluorophenyl)-1-((3-methylpyridin-4-yl)methyl)pyrrolidin-2-one] |  | 1.70 ± 1.51 | 0.59 ± 0.57 | 2.09 ± 1.37 | 2.16 ± 0.15 | 4.49 ± 0.50 | 4.26 ± 0.57 | 1.04 ± 0.09 | 2.36 ± 0.51 | 4.16 ± 0.42 | 3.09 ± 2.04 | 3.75 ± 0.11 | 0.80 ± 0.03 | 3.03 ± 0.55 | 3.60 ± 0.22 | 3.08 ± 0.96 | reduced the binding of these tracers to a significant extent | 0.42 ± 0.03 | 20.5 ± 6 | 15 ± 4 | Kp ([3]; Caudate nucleus): 31.9 ± 4.8; Kp ([3]; Centrum semiovale): 8.3 ± 2.4; Kp ([3]; Cerebellum): 26.1 ± 6.5; Kp ([3]; Cingulate cortex): 45 ± 9.2; Kp ([3]; Frontal cortex): 43 ± 8.1; Kp ([3]; Globus pallidus): 19.3 ± 2.4; Kp ([3]; Hippocampus): 27.3 ± 4; Kp ([3]; Insular cortex): 42.3 ± 9.1; Kp ([3]; Nucleus accumbens): 41.9 ± 7.8; Kp ([3]; Occipital cortex): 39.3 ± 10.7; Kp ([3]; Pons): 14.9 ± 4.1; Kp ([3]; Putamen): 32.8 ± 5.2; Kp ([3]; Temporal cortex): 37.9 ± 9.4; Kp ([3]; Thalamus): 32.7 ± 1.9; time to SUV peak in gray matter regions [1, 4]: slower |
| O=C1CC(c2cc(F)c(F)c(F)c2)CN1Cc1ccncc1F (stereo not shown) [^18F-10, 1-((3-fluoropyridin-4-yl)methyl)-4-(3,4,5-trifluorophenyl)pyrrolidin-2-one] |  | −0.03 | 0.01 | 0.37 | 0.22 | 0.59 | 0.46 | 0.14 | 0.12 | 0.48 | 0.43 | 0.53 | 0.04 | 0.39 | 0.39 | 0.19 |  | 0.52 | 9.8 | 10.2 | Kp ([3]; Caudate nucleus): 13.8; Kp ([3]; Centrum semiovale): 10.1; Kp ([3]; Cerebellum): 12.3; Kp ([3]; Cingulate cortex): 16; Kp ([3]; Frontal cortex): 14.7; Kp ([3]; Globus pallidus): 11.5; Kp ([3]; Hippocampus): 11.3; Kp ([3]; Insular cortex): 14.9; Kp ([3]; Nucleus accumbens): 14.4; Kp ([3]; Occipital cortex): 15.5; Kp ([3]; Pons): 10.5; Kp ([3]; Putamen): 14; Kp ([3]; Temporal cortex): 14; Kp ([3]; Thalamus): 12; time to SUV peak in gray matter regions [1, 4]: ≤ 10 min |
| Cc1cnccc1CN1CC(c2cccc(F)c2)CC1=O (stereo not shown) [^18F-11, 4-(3-Fluorophenyl)-1-((3-methylpyridin-4-yl)methyl)pyrrolidin-2-one] |  | 1.05 ± 0.29 | 0.53 ± 0.42 | 2.29 ± 0.88 | 1.59 ± 0.76 | 3.49 ± 1.52 | 3.29 ± 1.40 | 1.13 ± 0.61 | 1.58 ± 0.59 | 3.00 ± 1.21 | 3.12 ± 1.26 | 2.90 ± 1.50 | 0.46 ± 0.51 | 2.21 ± 0.89 | 2.63 ± 1.33 | 2.18 ± 0.77 | reduced the binding of these tracers to a significant extent | 0.42 ± 0.02 | 8.7 ± 2.4 | 6.6 ± 2.9 | Kp ([3]; Caudate nucleus): 13.2 ± 2.6; Kp ([3]; Centrum semiovale): 4.4 ± 1.5; Kp ([3]; Cerebellum): 10.8 ± 2.6; Kp ([3]; Cingulate cortex): 18.2 ± 2.2; Kp ([3]; Frontal cortex): 17.4 ± 2.2; Kp ([3]; Globus pallidus): 8.8 ± 1.8; Kp ([3]; Hippocampus): 10.7 ± 2.8; Kp ([3]; Insular cortex): 16.8 ± 2.6; Kp ([3]; Nucleus accumbens): 16.4 ± 2.9; Kp ([3]; Occipital cortex): 15.7 ± 2.7; Kp ([3]; Pons): 6.4 ± 3.5; Kp ([3]; Putamen): 13.6 ± 2.3; Kp ([3]; Temporal cortex): 14.7 ± 2.5; Kp ([3]; Thalamus): 13.2 ± 2.1; Uptake of radiotracer in blocking studies [1]: reduced to background levels; time to SUV peak in gray matter regions [1, 4]: ≤ 10 min |

Continued, in another order:

| time to SUV peak in gray matter regions ([1]; rhesus monkey, in vivo, iv) | SMILES | Binding potential (BPND) ([1]; Amygdala) | Binding potential (BPND) ([1]; Brainstem) | Binding potential (BPND) ([1]; Caudate nucleus) | Binding potential (BPND) ([1]; Cerebellum) | Binding potential (BPND) ([1]; Cingulate cortex) | Binding potential (BPND) ([1]; Frontal cortex) | Binding potential (BPND) ([1]; Globus pallidus) | Binding potential (BPND) ([1]; Hippocampus) | Binding potential (BPND) ([1]; Insular cortex) | Binding potential (BPND) ([1]; Nucleus accumbens) | Binding potential (BPND) ([1]; Occipital cortex) | Binding potential (BPND) ([1]; Pons) | Binding potential (BPND) ([1]; Putamen) | Binding potential (BPND) ([1]; Temporal cortex) | Binding potential (BPND) ([1]; Thalamus) | Displacement of radiotracer binding by levetiracetam [1] | fraction unbound [2] | Kp ([3]; Amygdala) | Kp ([3]; Brainstem) | further results |
| --- | --- | --- | --- | --- | --- | --- | --- | --- | --- | --- | --- | --- | --- | --- | --- | --- | --- | --- | --- | --- | --- |
| ≤ 10 min | Cc1cnccc1CN1CC(c2ccc(F)c(F)c2)CC1=O (stereo not shown) [^18F-4, 4-(3,4-difluorophenyl)-1-((3-methylpyridin-4-yl)methyl)pyrrolidin-2-one] | 0.66 | 0.75 | 1.72 | 0.55 | 2.60 | 2.51 | 0.95 | 1.35 | 2.41 | 2.47 | 2.30 | 0.73 | 1.86 | 2.21 | 1.65 | reduced the binding of these tracers to a significant extent | 0.41 |  |  |  |
| ≤ 10 min | O=C1CC(c2cccc(F)c2)CN1Cc1ccncc1 (stereo not shown) [^18F-12, 4-(3-Fluorophenyl)-1-(pyridin-4-ylmethyl)pyrrolidin-2-one] | 0.04 | −0.06 | 0.75 | 0.25 | 1.45 | 1.28 | 0.29 | 0.44 | 1.09 | 1.18 | 0.90 | −0.09 | 0.86 | 0.95 | 0.42 | reduced the binding of these tracers to a significant extent | 0.61 |  |  |  |
